Biological target: LytA239–252 (Streptococcus pneumoniae, UniProt P06653)
Experiment: near-UV CD titration, ellipticity at […] nm
Type: binding

C[N+](C)(C)CCO [choline]
Kd: 80 ± 10 mM

From publication PMC4471590 (Chemistry (Weinheim an Der Bergstrasse, Germany), 2015)
